Measured values published in ChEMBL document CHEMBL4303773 (Nature, 2020).

Columns and labels:
[1] = target: Muscarinic acetylcholine receptor M3 (Homo sapiens, UniProt P20309)
[2] = target: T1, Muscarinic acetylcholine receptor M1 (Homo sapiens, UniProt P11229)
T1 sequence (P11229 whole entry): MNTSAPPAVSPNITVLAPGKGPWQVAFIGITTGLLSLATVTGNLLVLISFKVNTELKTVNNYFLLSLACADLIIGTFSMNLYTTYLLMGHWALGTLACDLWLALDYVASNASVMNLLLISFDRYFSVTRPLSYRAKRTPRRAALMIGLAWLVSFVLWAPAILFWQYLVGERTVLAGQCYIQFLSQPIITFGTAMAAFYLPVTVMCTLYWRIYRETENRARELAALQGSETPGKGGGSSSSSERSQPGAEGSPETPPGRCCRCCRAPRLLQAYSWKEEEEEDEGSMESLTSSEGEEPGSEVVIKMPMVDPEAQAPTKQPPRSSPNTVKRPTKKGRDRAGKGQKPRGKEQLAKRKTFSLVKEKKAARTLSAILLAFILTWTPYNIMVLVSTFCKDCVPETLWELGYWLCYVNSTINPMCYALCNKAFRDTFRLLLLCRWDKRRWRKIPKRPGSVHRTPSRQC

[3] = target: T2, Alpha-2B adrenergic receptor (Homo sapiens, UniProt P18089)
T2 sequence (P18089 whole entry): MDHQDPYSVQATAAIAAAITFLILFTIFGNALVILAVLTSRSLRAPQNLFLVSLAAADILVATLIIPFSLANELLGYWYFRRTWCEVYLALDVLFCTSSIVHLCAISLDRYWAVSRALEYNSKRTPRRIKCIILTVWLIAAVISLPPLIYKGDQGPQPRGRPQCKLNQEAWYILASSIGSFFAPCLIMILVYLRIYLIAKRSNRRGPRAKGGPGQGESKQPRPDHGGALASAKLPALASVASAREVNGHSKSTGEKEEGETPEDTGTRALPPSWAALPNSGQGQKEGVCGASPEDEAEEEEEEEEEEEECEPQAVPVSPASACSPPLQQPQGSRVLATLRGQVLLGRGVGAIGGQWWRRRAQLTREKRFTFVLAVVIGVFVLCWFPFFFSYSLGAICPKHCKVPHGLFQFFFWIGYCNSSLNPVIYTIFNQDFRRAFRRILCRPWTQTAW

Sequence of Muscarinic acetylcholine receptor M3 (P20309 whole entry): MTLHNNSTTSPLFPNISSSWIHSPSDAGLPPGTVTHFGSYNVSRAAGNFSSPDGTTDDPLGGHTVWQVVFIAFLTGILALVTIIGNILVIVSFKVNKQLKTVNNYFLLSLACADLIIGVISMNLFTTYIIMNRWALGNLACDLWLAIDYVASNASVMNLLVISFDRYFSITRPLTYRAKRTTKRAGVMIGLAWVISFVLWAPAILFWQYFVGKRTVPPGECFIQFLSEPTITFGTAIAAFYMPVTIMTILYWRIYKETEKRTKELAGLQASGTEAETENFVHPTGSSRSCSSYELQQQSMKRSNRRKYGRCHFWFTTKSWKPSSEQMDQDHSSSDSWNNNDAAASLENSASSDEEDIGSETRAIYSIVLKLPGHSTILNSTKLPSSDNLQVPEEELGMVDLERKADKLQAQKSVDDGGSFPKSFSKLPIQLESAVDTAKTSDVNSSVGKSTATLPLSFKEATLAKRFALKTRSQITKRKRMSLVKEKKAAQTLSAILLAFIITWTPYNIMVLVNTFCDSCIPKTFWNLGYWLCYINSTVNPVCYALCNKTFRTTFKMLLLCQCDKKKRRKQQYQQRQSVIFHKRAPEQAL

SMILES: CCCN1CCC=C(c2cc(-c3ccc(C)cc3)no2)C1
- Ki [1]: 24 µM
- Ki [2]: > 31.6 µM
- Ki [3]: 20.4 µM
